According to patent publication US4226883A, “Carbamate derivatives and method for manufacture thereof” (priority 1974, dated 1980):
Where two headings read alike, the source gives them in different places.

Key:
[1] = tested on: green rice leafhoppers of the strain RN; test: Test Example 3: dust spray test (20 mesh metal gauze cylinder); format: in vivo, Nephotettix cincticeps; settings: for Effect of individual compound (RN), death ratio (%) (Table 9): dust, compound alone, RN strain; for death ratio (%), mixture with Compound No. 1 / death ratio (%), mixture with Compound No. 6* / death ratio (%), mixture with Compound No. 24* / death ratio (%), mixture with Compound No. 35* / death ratio (%), mixture with Compound No. 40* / death ratio (%), mixture with Compound No. 49* / death ratio (%), mixture with Compound No. 81* / death ratio (%), mixture with Compound No. 118* / death ratio (%), mixture with Carbofuran / death ratio (%), mixture with Methomyl: Table 9, RN; for death ratio (%), mixture with Compound No. 1: dust mixed with 1; for death ratio (%), mixture with Compound No. 6*: dust mixed with 6*; for death ratio (%), mixture with Compound No. 24*: dust mixed with 24*; for death ratio (%), mixture with Compound No. 35*: dust mixed with 35*; for death ratio (%), mixture with Compound No. 40*: dust mixed with 40*; for death ratio (%), mixture with Compound No. 49*: dust mixed with 49*; for death ratio (%), mixture with Compound No. 81*: dust mixed with 81*; for death ratio (%), mixture with Compound No. 118*: dust mixed with 118*; for death ratio (%), mixture with Carbofuran: dust mixed with Carbofuran; for death ratio (%), mixture with Methomyl: dust mixed with Methomyl
Method: The insecticides in the form of dust were tested for insecticidal activity.
The test for insecticidal activity was performed by the following procedure. […] The dust of a test compound (pulverized by means of a shaking pulverizer made by Taira Kosakusho, Ltd.) was applied onto the tube contents at a prescribed rate by spraying from outside the metal gauze by means of a bell-jar duster. The dust of the test compound was prepared uniformly mixing 2 parts of the dust of the individual compound or 1 part each of the dusts of the mixture components (total 2 parts) and 98 parts of a carrier obtained by mixing talc and clay in equal volumes.

[2] = tested on: resistant green rice leafhoppers (R); settings: ratio of the resistant strain to the susceptible strain (LD50); 1440 min
Method: (1) A 20-mg portion of a given test compound was weighed out and dissolved in 10 ml of acetone. The resultant solution was diluted at proper times with acetone.
(2) With a micro-syringe, the acetone solution of the test compound was topically applied to the thoracic region of female green rice leafhoppers at a fixed dose of 0.2 μl per head.
(3) The female green rice leafhoppers thus treated were placed in a plastic cup prepared in advance (measuring 7 cm in diameter and 3.5 cm in depth and containing rice seeds) and kept at a constant temperature of 26±1° C. After 24 hours' standing, the dead insects were counted.
In the case of a mixed insecticide, the LD50 was shown as a total dosage.

[3] = 2% dust, 250 mg, 24 hr, read-out: Mortality (%) after 24 hr., 250 mg Spray (Table 7)
[4] = 2% dust, 100 mg, 24 hr, read-out: Mortality (%) after 24 hr., 100 mg Spray (Table 7)
[5] = Table 8, dust 100 mg, 24 hr, read-out: Mortality (%) after 24 hr., Spray Volume 100 mg
[6] = Table 8, dust 250 mg, 24 hr, read-out: Mortality (%) after 24 hr., Spray Volume 250 mg

SMILES: CNC(=O)Oc1cccc2c1OC(C)(C)C2 [Carbofuran, 2,3dihydro-2,2-dimethyl-benzofuran-7-yl-N-methylcarbamate, reference compound]
- Effect of individual compound (RN), death ratio (%) (Table 9) [1]: 40.0%

SMILES: C=CCNC(=O)Oc1ccccc1C(C)C [Compound 5, 2-isopropylphenyl-N-allylcarbamate]
- Insecticidal Activity R/S (resistant ratio) [2]: 3.1

SMILES: CCNC(=O)Oc1ccccc1C(C)CC (stereo not shown) [Compound 7, 2-sec-butylphenyl-N-ethylcarbamate]
- Insecticidal Activity R/S (resistant ratio) [2]: 2.6

SMILES: C=CCNC(=O)Oc1ccccc1C(C)CC (stereo not shown) [Compound 10, 2-sec-butylphenyl-N-allylcarbamate]
- Insecticidal Activity R/S (resistant ratio) [2]: 4.3
- mortality at 250 mg/cylinder [1, 3]: 100%

SMILES: CCCNC(=O)Oc1cccc(C(C)C)c1 [Compound 13, 3-isopropylphenyl-N-n-propylcarbamate]
- Insecticidal Activity R/S (resistant ratio) [2]: 1.4

SMILES: CNC(=O)Oc1cccc(C)c1 [Compound 24, 3-methylphenyl-N-methylcarbamate, reference compound]
- Insecticidal Activity R/S (resistant ratio) [2]: 9.9
- mortality at 100 mg/cylinder [1, 4]: 0%
- mortality at 250 mg/cylinder [1, 3]: 20%
- mortality at 100 mg/cylinder [1, 5]: 0%
- mortality at 250 mg/cylinder [1, 6]: 20%
- Effect of individual compound (RN), death ratio (%) (Table 9) [1]: 0%

SMILES: CCNC(=O)Oc1cccc(C)c1 [Compound 25, 3-methylphenyl-N-ethylcarbamate]
- Insecticidal Activity R/S (resistant ratio) [2]: 3.7

SMILES: C=CCNC(=O)Oc1cccc(C)c1 [Compound 28, 3-methylphenyl-N-allylcarbamate]
- Insecticidal Activity R/S (resistant ratio) [2]: 1.8
- mortality at 100 mg/cylinder [1, 4]: 60%
- mortality at 250 mg/cylinder [1, 3]: 100%

SMILES: CCCNC(=O)Oc1cccc(CC)c1 [Compound 31, 3-ethylphenyl-N-n-propylcarbamate]
- Insecticidal Activity R/S (resistant ratio) [2]: 0.5

SMILES: CCCNC(=O)Oc1cccc(C(C)(C)C)c1 [Compound 33, 3-tert-butylphenyl-N-n-propylcarbamate]
- Insecticidal Activity R/S (resistant ratio) [2]: 1.5

SMILES: CNC(=O)Oc1ccc(C)c(C)c1 [Compound 35, 3,4-dimethylphenyl-N-methylcarbamate, reference compound]
- Insecticidal Activity R/S (resistant ratio) [2]: 4.7
- mortality at 100 mg/cylinder ([1]; 24 h, read-out: Mortality (%) after 24 hr., 100 mg Spray (Table 7)): 0%
- mortality at 250 mg/cylinder ([1]; 24 h, read-out: Mortality (%) after 24 hr., 250 mg Spray (Table 7)): 0%
- mortality at 100 mg/cylinder ([1]; 24 h, read-out: Mortality (%) after 24 hr., Spray Volume 100 mg): 0%
- mortality at 250 mg/cylinder ([1]; 24 h, read-out: Mortality (%) after 24 hr., Spray Volume 250 mg): 0%

SMILES: CCNC(=O)Oc1ccc(C)c(C)c1 [Compound 36, 3,4-dimethylphenyl-N-ethylcarbamate]
- Insecticidal Activity R/S (resistant ratio) [2]: 3.3
- mortality at 100 mg/cylinder [1, 4]: 55%
- mortality at 250 mg/cylinder [1, 3]: 80%

SMILES: C=CCNC(=O)Oc1ccc(C)c(C)c1 [Compound 39, 3,4-dimethylphenyl-N-allylcarbamate]
- Insecticidal Activity R/S (resistant ratio) [2]: 0.8
- mortality at 100 mg/cylinder [1, 4]: 50%
- mortality at 250 mg/cylinder [1, 3]: 60%

SMILES: CNC(=O)Oc1cc(C)cc(C)c1 [Compound 40, 3,5-dimethylphenyl-N-methylcarbamate, reference compound]
- Insecticidal Activity R/S (resistant ratio) [2]: 5.3
- mortality at 100 mg/cylinder [1, 4]: 5%
- mortality at 250 mg/cylinder [1, 3]: 15%
- mortality at 100 mg/cylinder [1, 5]: 5%
- mortality at 250 mg/cylinder [1, 6]: 15%
- Effect of individual compound (RN), death ratio (%) (Table 9) [1]: 0%

SMILES: C=CCNC(=O)Oc1cc(C)cc(C)c1 [Compound 44, 3,5-dimethylphenyl-N-allylcarbamate]
- Insecticidal Activity R/S (resistant ratio) [2]: 0.9
- mortality at 100 mg/cylinder [1, 4]: 60%
- mortality at 250 mg/cylinder [1, 3]: 80%

SMILES: CNC(=O)Oc1cc(C)cc(C(C)C)c1 [Compound 45, 3-methyl-5-isopropylphenyl-N-methylcarbamate, reference compound]
- Insecticidal Activity R/S (resistant ratio) [2]: 11.6
- mortality at 100 mg/cylinder [1, 4]: 0%
- mortality at 250 mg/cylinder [1, 3]: 10%

SMILES: CCNC(=O)Oc1cc(C)cc(C(C)C)c1 [Compound 46, 3-methyl-5-isopropylphenyl-N-ethylcarbamate]
- Insecticidal Activity R/S (resistant ratio) [2]: 0.9
- mortality at 100 mg/cylinder [1, 4]: 45%
- mortality at 250 mg/cylinder [1, 3]: 70%

SMILES: CCCNC(=O)Oc1cc(C)cc(C(C)C)c1 [Compound 47, 3-methyl-5-isopropylphenyl-N-n-propylcarbamate]
- Insecticidal Activity R/S (resistant ratio) [2]: 1.4
- mortality at 100 mg/cylinder [1, 4]: 70%
- mortality at 250 mg/cylinder [1, 3]: 100%

SMILES: CCCNC(=O)Oc1ccccc1OC [Compound 77, 2-methoxyphenyl-N-n-propylcarbamate]
- death ratio (%), mixture with Compound No. 1 [1]: 95.0%
- death ratio (%), mixture with Compound No. 6* [1]: 100%
- death ratio (%), mixture with Compound No. 24* [1]: 100%
- death ratio (%), mixture with Compound No. 35* [1]: 100%
- death ratio (%), mixture with Compound No. 40* [1]: 95.0%
- death ratio (%), mixture with Compound No. 49* [1]: 50.0%
- death ratio (%), mixture with Compound No. 81* [1]: 80.0%
- death ratio (%), mixture with Compound No. 118* [1]: 100%
- death ratio (%), mixture with Carbofuran [1]: 100%
- death ratio (%), mixture with Methomyl [1]: 100%
- Effect of individual compound (RN), death ratio (%) (Table 9) [1]: 45.0%

SMILES: CCCNC(=O)Oc1ccccc1OCC [Compound 80, 2-ethoxyphenyl-N-n-propylcarbamate]
- death ratio (%), mixture with Compound No. 1 [1]: 65.0%
- death ratio (%), mixture with Compound No. 6* [1]: 60.0%
- death ratio (%), mixture with Compound No. 24* [1]: 57.5%
- death ratio (%), mixture with Compound No. 35* [1]: 65.0%
- death ratio (%), mixture with Compound No. 40* [1]: 55.0%
- death ratio (%), mixture with Compound No. 49* [1]: 15.0%
- death ratio (%), mixture with Compound No. 81* [1]: 60.0%
- death ratio (%), mixture with Compound No. 118* [1]: 70.0%
- death ratio (%), mixture with Carbofuran [1]: 85.0%
- death ratio (%), mixture with Methomyl [1]: 75.0%
- Effect of individual compound (RN), death ratio (%) (Table 9) [1]: 0%

SMILES: CCNC(=O)Oc1ccccc1OC(C)C [Compound 82, 2-isopropoxyphenyl-N-ethylcarbamate]
- death ratio (%), mixture with Compound No. 1 [1]: 25.0%
- death ratio (%), mixture with Compound No. 6* [1]: 50.0%
- death ratio (%), mixture with Compound No. 24* [1]: 45.0%
- death ratio (%), mixture with Compound No. 35* [1]: 60.0%
- death ratio (%), mixture with Compound No. 40* [1]: 45.0%
- death ratio (%), mixture with Compound No. 49* [1]: 15.0%
- death ratio (%), mixture with Compound No. 81* [1]: 55.0%
- death ratio (%), mixture with Compound No. 118* [1]: 80.0%
- death ratio (%), mixture with Carbofuran [1]: 80.0%
- death ratio (%), mixture with Methomyl [1]: 85.0%
- Effect of individual compound (RN), death ratio (%) (Table 9) [1]: 15.0%

SMILES: CCCCNC(=O)Oc1ccccc1OC(C)C [Compound 84]
- death ratio (%), mixture with Compound No. 1 [1]: 0%
- death ratio (%), mixture with Compound No. 6* [1]: 15.0%
- death ratio (%), mixture with Compound No. 24* [1]: 5.0%
- death ratio (%), mixture with Compound No. 35* [1]: 10.0%
- death ratio (%), mixture with Compound No. 40* [1]: 5.0%
- death ratio (%), mixture with Compound No. 49* [1]: 0%
- death ratio (%), mixture with Compound No. 81* [1]: 100%
- death ratio (%), mixture with Compound No. 118* [1]: 67.5%
- death ratio (%), mixture with Carbofuran [1]: 55.0%
- death ratio (%), mixture with Methomyl [1]: 70.0%
- Effect of individual compound (RN), death ratio (%) (Table 9) [1]: 0%

SMILES: C=CCNC(=O)Oc1ccccc1OC(C)C [Compound 85, 2-isopropoxyphenyl-N-allylcarbamate]
- death ratio (%), mixture with Compound No. 1 [1]: 50.0%
- death ratio (%), mixture with Compound No. 6* [1]: 45.0%
- death ratio (%), mixture with Compound No. 24* [1]: 35.0%
- death ratio (%), mixture with Compound No. 35* [1]: 75.0%
- death ratio (%), mixture with Compound No. 40* [1]: 60.0%
- death ratio (%), mixture with Compound No. 49* [1]: 0%
- death ratio (%), mixture with Compound No. 81* [1]: 80.0%
- death ratio (%), mixture with Compound No. 118* [1]: 35.0%
- death ratio (%), mixture with Carbofuran [1]: 85.0%
- death ratio (%), mixture with Methomyl [1]: 90.0%
- Effect of individual compound (RN), death ratio (%) (Table 9) [1]: 25.0%

SMILES: CCCNC(=O)Oc1cccc(OCC)c1 [Compound 94, 3-ethoxyphenyl-N-n-propylcarbamate]
- death ratio (%), mixture with Compound No. 1 [1]: 80.0%
- death ratio (%), mixture with Compound No. 6* [1]: 85.0%
- death ratio (%), mixture with Compound No. 24* [1]: 95.0%
- death ratio (%), mixture with Compound No. 35* [1]: 95.0%
- death ratio (%), mixture with Compound No. 40* [1]: 85.0%
- death ratio (%), mixture with Compound No. 49* [1]: 35.0%
- death ratio (%), mixture with Compound No. 81* [1]: 95.0%
- death ratio (%), mixture with Compound No. 118* [1]: 95.0%
- death ratio (%), mixture with Carbofuran [1]: 90.0%
- death ratio (%), mixture with Methomyl [1]: 100%
- Effect of individual compound (RN), death ratio (%) (Table 9) [1]: 0%

SMILES: CNC(=O)Oc1cc(C)c(N(C)C)c(C)c1 [Compound 118, 4-dimethylamino-3,5-dimethylphenyl-N-methylcarbamate, reference compound]
- Effect of individual compound (RN), death ratio (%) (Table 9) [1]: 23.4%

SMILES: CNC(=O)ON=C(C)SC [Methomyl, 1(methylthio)ethylideneamino-N-methylcarbamate, reference compound]
- Effect of individual compound (RN), death ratio (%) (Table 9) [1]: 35.0%
